PubChem BioAssay AID1745844 (Carcinogenic Potency Database (CPDB), 2022)
Activity calls are given as the source filed them. No rule for the calls is given here.

Test system: rodent lifetime carcinogenesis bioassay, tumor incidence TD50
Assay: carcinogenic potency in animals, long-term in vivo studies, CPDB compilation (AID 1745844)

O=C(O)c1ccc(N=Nc2ccc(O)c(C(=O)O)c2)cc1
TD50 (mouse, strain NMRI, females, in feed, site: all sites, lesion: lymphoma, dosed 107 weeks, study length 107 weeks): 1200 mg/kg/day (inactive)
carcinogen call (mouse, strain NMRI, females, in feed, site: liver, lesion: hepatocellular adenoma, dosed 107 weeks, study length 107 weeks): negative (inactive)
carcinogen call (mouse, strain NMRI, females, in feed, site: lung, lesion: alveolar/bronchiolar adenocarcinoma, dosed 107 weeks, study length 107 weeks): negative (inactive)
TD50 (mouse, strain NMRI, females, in feed, site: lung, lesion: alveolar/bronchiolar adenoma, dosed 107 weeks, study length 107 weeks): 2650 mg/kg/day (inactive)
TD50 (mouse, strain NMRI, males, in feed, site: liver, lesion: hepatocellular adenoma, dosed 120 weeks, study length 120 weeks): 35200 mg/kg/day (inactive)
TD50 (mouse, strain NMRI, males, in feed, site: liver, lesion: hepatocellular carcinoma, dosed 120 weeks, study length 120 weeks): 19500 mg/kg/day (inactive)
TD50 (mouse, strain NMRI, males, in feed, site: lung, lesion: alveolar/bronchiolar adenocarcinoma, dosed 120 weeks, study length 120 weeks): 14300 mg/kg/day (inactive)
TD50 (mouse, strain NMRI, males, in feed, site: lung, lesion: alveolar/bronchiolar adenoma, dosed 120 weeks, study length 120 weeks): 13000 mg/kg/day (inactive)
carcinogen call (rat, strain Sprague-Dawley, females, in feed, site: liver, lesion: hepatocellular tumor, dosed 119 weeks, study length 119 weeks): negative (inactive)
carcinogen call (rat, strain Sprague-Dawley, males, in feed, site: liver, lesion: hepatocellular adenoma, dosed 118 weeks, study length 118 weeks): negative (inactive)
carcinogen call (rat, strain Sprague-Dawley, males, in feed, site: liver, lesion: hepatocellular carcinoma, dosed 118 weeks, study length 118 weeks): negative (inactive)
TD50 (rat, strain Sprague-Dawley, males, in feed, site: thyroid gland, lesion: follicular-cell adenoma, dosed 118 weeks, study length 118 weeks): 15300 mg/kg/day

O=NN1CC=CCO1
TD50 (rat, strain Sprague-Dawley, both sexes, in drinking water, site: any site (literature study), lesion: malignant tumor, dosed 87 weeks, study length 101 weeks): 90.6 mg/kg/day
TD50 (rat, strain Sprague-Dawley, both sexes, in drinking water, site: any site (literature study), lesion: several types, types named in the paper, dosed 87 weeks, study length 101 weeks): 110 mg/kg/day
TD50 (rat, strain Sprague-Dawley, both sexes, in drinking water, site: liver, lesion: hepatoma, dosed 87 weeks, study length 101 weeks): 417 mg/kg/day (inactive)

ClC(Cl)C(Cl)Cl
TD50 (mouse, strain B6C3F1, females, by gavage, site: any site (literature study), lesion: several types, types named in the paper, dosed 78 weeks, study length 92 weeks): 37.2 mg/kg/day
TD50 (mouse, strain B6C3F1, females, by gavage, site: liver, lesion: hepatocellular adenoma + hepatocellular carcinoma + neoplastic nodule, dosed 78 weeks, study length 92 weeks): 35.4 mg/kg/day
TD50 (mouse, strain B6C3F1, females, by gavage, site: liver, lesion: hepatocellular carcinoma, dosed 78 weeks, study length 91 weeks): 35.8 mg/kg/day
TD50 (mouse, strain B6C3F1, females, by gavage, site: liver, lesion: hepatocellular carcinoma, dosed 78 weeks, study length 92 weeks): 35.4 mg/kg/day
TD50 (mouse, strain B6C3F1, females, by gavage, site: lung, lesion: alveolar/bronchiolar adenoma + alveolar/bronchiolar carcinoma, dosed 78 weeks, study length 92 weeks): 1910 mg/kg/day
TD50 (mouse, strain B6C3F1, males, by gavage, site: any site (literature study), lesion: several types, types named in the paper, dosed 78 weeks, study length 92 weeks): 38.7 mg/kg/day
TD50 (mouse, strain B6C3F1, males, by gavage, site: liver, lesion: hepatocellular adenoma + hepatocellular carcinoma + neoplastic nodule, dosed 78 weeks, study length 92 weeks): 41.6 mg/kg/day
TD50 (mouse, strain B6C3F1, males, by gavage, site: liver, lesion: hepatocellular carcinoma, dosed 78 weeks, study length 91 weeks): 45.4 mg/kg/day
TD50 (mouse, strain B6C3F1, males, by gavage, site: liver, lesion: hepatocellular carcinoma, dosed 78 weeks, study length 92 weeks): 41.6 mg/kg/day
TD50 (mouse, strain B6C3F1, males, by gavage, site: lung, lesion: alveolar/bronchiolar adenoma + alveolar/bronchiolar carcinoma, dosed 78 weeks, study length 92 weeks): 895 mg/kg/day
TD50 (rat, strain Osborne-Mendel, females, by gavage, site: any site (literature study), lesion: several types, types named in the paper, dosed 77 weeks, study length 110 weeks): 84.2 mg/kg/day (inactive)
carcinogen call (rat, strain Osborne-Mendel, males, by gavage, site: any site (literature study), lesion: several types, types named in the paper, dosed 77 weeks, study length 110 weeks): negative (inactive)
TD50 (rat, strain Osborne-Mendel, males, by gavage, site: liver, lesion: hepatocellular adenoma + hepatocellular carcinoma + neoplastic nodule, dosed 77 weeks, study length 110 weeks): 624 mg/kg/day

O=c1c(O)c(-c2ccc(O)cc2)oc2cc(O)cc(O)c12
TD50 (rat, strain ACI, females, in feed, site: any site (literature study), lesion: several types, types named in the paper, dosed 77 weeks, study length 77 weeks): 55.3 mg/kg/day (inactive)
TD50 (rat, strain ACI, males, in feed, site: adrenal gland, lesion: cortical adenoma, dosed 77 weeks, study length 77 weeks): 17.9 mg/kg/day (inactive)

CC1CN(N=O)CC(C)N1N=O (configuration not stated)
TD50 (hamster, strain Syrian Golden, males, by gavage, site: any site (literature study), lesion: several types, types named in the paper, dosed 35 weeks, study length 76 weeks): 0.932 mg/kg/day
TD50 (hamster, strain Syrian Golden, males, by gavage, site: forestomach, lesion: papilloma, dosed 35 weeks, study length 76 weeks): 3.1 mg/kg/day
TD50 (hamster, strain Syrian Golden, males, by gavage, site: liver, lesion: angiosarcoma, dosed 35 weeks, study length 76 weeks): 8.3 mg/kg/day
TD50 (hamster, strain Syrian Golden, males, by gavage, site: lung, lesion: adenoma, dosed 35 weeks, study length 76 weeks): 6.04 mg/kg/day

OC[C@@H](O)[C@@H](O)[C@H](O)[C@H](O)CO
TD50 (mouse, strain B6C3F1, females, in feed, site: all sites, lesion: hemangiosarcoma, dosed 103 weeks, study length 104 weeks): 46700 mg/kg/day (inactive)
TD50 (mouse, strain B6C3F1, females, in feed, site: all sites, lesion: lymphocytic leukemia, dosed 103 weeks, study length 104 weeks): 48000 mg/kg/day
carcinogen call (mouse, strain B6C3F1, males, in feed, site: any site (literature study), lesion: several types, types named in the paper, dosed 103 weeks, study length 104 weeks): negative (inactive)
TD50 (mouse, strain B6C3F1, males, in feed, site: lung, lesion: alveolar/bronchiolar adenoma + alveolar/bronchiolar carcinoma, dosed 103 weeks, study length 104 weeks): 98100 mg/kg/day
TD50 (rat, strain Fischer 344, females, in feed, site: any site (literature study), lesion: several types, types named in the paper, dosed 103 weeks, study length 104 weeks): 5000 mg/kg/day (inactive)
carcinogen call (rat, strain Fischer 344, males, in feed, site: any site (literature study), lesion: several types, types named in the paper, dosed 103 weeks, study length 104 weeks): negative (inactive)
TD50 (rat, strain Fischer 344, males, in feed, site: liver, lesion: hepatocellular adenoma + hepatocellular carcinoma + neoplastic nodule, dosed 103 weeks, study length 104 weeks): 18000 mg/kg/day

O=[N+]([O-])c1cc([N+](=O)[O-])c(Cl)c(Cl)c1Cl
TD50 (mouse, strain B6AKF1, females, oral dosing, site: any site (literature study), lesion: several types, types named in the paper, dosed 76 weeks, study length 76 weeks): 52.6 mg/kg/day
TD50 (mouse, strain B6AKF1, females, oral dosing, site: lung, lesion: adenoma, dosed 76 weeks, study length 76 weeks): 108 mg/kg/day
TD50 (mouse, strain B6AKF1, males, oral dosing, site: lung, lesion: adenoma, dosed 76 weeks, study length 76 weeks): 49 mg/kg/day
TD50 (mouse, strain B6C3F1, males, oral dosing, site: any site (literature study), lesion: several types, types named in the paper, dosed 76 weeks, study length 76 weeks): 19.8 mg/kg/day

OC[C@H]1O[C@H](O[C@]2(CCl)O[C@H](CCl)[C@@H](O)[C@@H]2O)[C@H](O)[C@@H](O)[C@H]1Cl
carcinogen call (mouse, strain Charles River CD1, females, in feed, site: any site (literature study), lesion: several types, types named in the paper, dosed 104 weeks, study length 104 weeks): negative (inactive)
carcinogen call (mouse, strain Charles River CD1, females, in feed, site: liver, lesion: hepatocellular adenoma, dosed 104 weeks, study length 104 weeks): negative (inactive)
TD50 (mouse, strain Charles River CD1, females, in feed, site: liver, lesion: hepatocellular carcinoma, dosed 104 weeks, study length 104 weeks): 98200 mg/kg/day (inactive)
carcinogen call (mouse, strain Charles River CD1, females, in feed, site: lung, lesion: adenoma, dosed 104 weeks, study length 104 weeks): negative (inactive)
carcinogen call (mouse, strain Charles River CD1, females, in feed, site: lung, lesion: carcinoma, dosed 104 weeks, study length 104 weeks): negative (inactive)
carcinogen call (mouse, strain Charles River CD1, males, in feed, site: any site (literature study), lesion: several types, types named in the paper, dosed 104 weeks, study length 104 weeks): negative (inactive)
carcinogen call (mouse, strain Charles River CD1, males, in feed, site: liver, lesion: hepatocellular adenoma, dosed 104 weeks, study length 104 weeks): negative (inactive)
carcinogen call (mouse, strain Charles River CD1, males, in feed, site: liver, lesion: hepatocellular carcinoma, dosed 104 weeks, study length 104 weeks): negative (inactive)
TD50 (mouse, strain Charles River CD1, males, in feed, site: lung, lesion: adenoma, dosed 104 weeks, study length 104 weeks): 35100 mg/kg/day (inactive)
carcinogen call (mouse, strain Charles River CD1, males, in feed, site: lung, lesion: carcinoma, dosed 104 weeks, study length 104 weeks): negative (inactive)

ON=C1CCCC1
TD50 (rat, strain Fischer 344, males, by gavage, site: liver, lesion: hepatocellular carcinoma, dosed 50 weeks, study length 83 weeks): 70.7 mg/kg/day
TD50 (rat, strain Fischer 344, males, by gavage, site: liver, lesion: several types, types named in the paper, dosed 50 weeks, study length 83 weeks): 40.9 mg/kg/day

CS(=O)(=O)OCCCNCCCOS(C)(=O)=O
TD50 (mouse, strain B6C3F1, females, i.p., site: any site (literature study), lesion: several types, types named in the paper, dosed 52 weeks, study length 86 weeks): 1.17 mg/kg/day (inactive)
TD50 (mouse, strain B6C3F1, females, i.p., site: lung, lesion: alveolar/bronchiolar adenoma + alveolar/bronchiolar carcinoma, dosed 52 weeks, study length 86 weeks): 6.88 mg/kg/day
TD50 (mouse, strain B6C3F1, males, i.p., site: all sites, lesion: lymphoma, dosed 52 weeks, study length 78 weeks): 37.7 mg/kg/day (inactive)
TD50 (mouse, strain B6C3F1, males, i.p., site: any site (literature study), lesion: several types, types named in the paper, dosed 52 weeks, study length 78 weeks): 2.07 mg/kg/day
TD50 (rat, strain Sprague-Dawley, females, i.p., site: any site (literature study), lesion: several types, types named in the paper, dosed 36 weeks, study length 80 weeks): 0.616 mg/kg/day
TD50 (rat, strain Sprague-Dawley, females, i.p., site: liver, lesion: hepatocellular adenoma + hepatocellular carcinoma + neoplastic nodule, dosed 36 weeks, study length 80 weeks): 5.01 mg/kg/day
TD50 (rat, strain Sprague-Dawley, females, i.p., site: peritoneum, lesion: fibrosarcoma + sarcoma, NOS, dosed 36 weeks, study length 80 weeks): 2.74 mg/kg/day
TD50 (rat, strain Sprague-Dawley, males, i.p., site: any site (literature study), lesion: several types, types named in the paper, dosed 36 weeks, study length 80 weeks): 1.3 mg/kg/day
TD50 (rat, strain Sprague-Dawley, males, i.p., site: peritoneum, lesion: fibrosarcoma + fibroma + sarcoma, NOS, dosed 36 weeks, study length 80 weeks): 0.915 mg/kg/day

C=C(C)C
carcinogen call (mouse, strain B6C3F1, females, inhaled, site: any site (literature study), lesion: several types, types named in the paper, dosed 105 weeks, study length 105 weeks): negative (inactive)
TD50 (mouse, strain B6C3F1, females, inhaled, site: liver, lesion: hepatocellular adenoma + hepatoblastoma + hepatocellular carcinoma, dosed 105 weeks, study length 105 weeks): 47800 mg/kg/day
TD50 (mouse, strain B6C3F1, males, inhaled, site: any site (literature study), lesion: several types, types named in the paper, dosed 104 weeks, study length 104 weeks): 8840 mg/kg/day (inactive)
carcinogen call (rat, strain Fischer 344, females, inhaled, site: any site (literature study), lesion: several types, types named in the paper, dosed 104 weeks, study length 104 weeks): negative (inactive)
TD50 (rat, strain Fischer 344, females, inhaled, site: liver, lesion: hepatocellular adenoma + hepatoblastoma + hepatocellular carcinoma, dosed 104 weeks, study length 104 weeks): 30100 mg/kg/day
TD50 (rat, strain Fischer 344, males, inhaled, site: thyroid gland, lesion: follicular-cell carcinoma, dosed 104 weeks, study length 104 weeks): 3550 mg/kg/day
